Measured values: PubChem BioAssay (NCI)
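All cell lines were grown in 96-well plates and treated with compound for 48 hours. TGI: concentration producing complete growth inhibition.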 Where a SMILES comes first, the peptide text is derived from it. The star is where a group is joined. Boc = CC(C)(C)OC(=O)*

Tests used:
Assay in all cases: NCI tumour cell line growth inhibition, 48 h
MDA-N = tested on: MDA-N
SF-268 CNS = tested on: SF-268 CNS
SK-MEL-28 melanoma = tested on: SK-MEL-28 melanoma
A498 renal = tested on: A498 renal
NCI/ADR-RES ovarian = tested on: NCI/ADR-RES ovarian
UACC-62 melanoma = tested on: UACC-62 melanoma
OVCAR-8 ovarian = tested on: OVCAR-8 ovarian
SK-OV-3 ovarian = tested on: SK-OV-3 ovarian
COLO 205 colon = tested on: COLO 205 colon
MALME-3M melanoma = tested on: MALME-3M melanoma
SN12C renal = tested on: SN12C renal

Compound | TGI (MDA-N) [µM] | TGI (SF-268 CNS) [µM] | TGI (SK-MEL-28 melanoma) [µM] | TGI (A498 renal) [µM] | TGI (NCI/ADR-RES ovarian) [µM] | TGI (UACC-62 melanoma) [µM] | TGI (OVCAR-8 ovarian) [µM] | TGI (SK-OV-3 ovarian) [µM] | TGI (COLO 205 colon) [µM] | TGI (MALME-3M melanoma) [µM] | TGI (SN12C renal) [µM]
CC(C)(C)COC(=O)C(C)(C)NC(=O)C(CC(=O)OCc1ccccc1)NC(=O)OCc1ccccc1 (stereo unspecified) | > 100 | > 100 | > 100 | 79.5 | > 100 | 80 | > 100 | > 100 | 44 | 81.3 | 75.7
Nn1c(Nc2ccc(S(N)(=O)=O)cc2)nnc(/C=C/c2c(O)ccc3ccccc23)c1=O | 42 | > 100 | 53.5 | 73.6 | 54 | 49.9 | 22.6 | 88.5 | 88.1 | 49.7 | 27.3
COc1ccc2nc3c([N+](=O)[O-])ccc(NCCN(C)C)c3c(N)c2c1 | 3.19 | 3.12 | 4.16 | 4.31 | 3.03 | 3.63 | 4.33 | 3.13 | 2.31 | 3.14 | 2.76
Cc1nnc(N)nc1/C=C\c1ccc(Cl)cc1Cl | > 100 | > 100 | > 100 | > 100 | > 100 | > 100 | > 100 | > 100 | 55.8 | 59.3 | > 100
COC1=C[C@]2(CCC(=O)O2)[C@@H]2Cc3ccccc3[C@H](O)[C@@H]2C1=O | 30.1 | > 100 | > 100 | > 100 | > 100 | 65.1 | > 100 | > 100 | > 100 | 50.2 | > 100
N[C@H]1c2c(Br)sc(Br)c2C(=O)[C@H]1O | 30.1 | > 68.1 | 26.7 | > 100 | > 58.9 | 23.7 | 43.7 | 38.3 | 22.2 | 29.6 | 3.63
Clc1ccc(CCNC2(c3cc4ccccc4s3)CCCCC2)cc1Cl | > 100 | > 100 | 87.2 | 39.9 | 80.8 | 37.2 | > 100 | > 100 | 49.2 | 36.9 | > 100
CC(=O)C1=C(C)O[C@@H]2O[C@H](COCc3ccccc3)[C@@H](OCc3ccccc3)[C@H](O)[C@@H]2S1 | 51.7 | 32 | 64 | 71 | 51.6 | 31.8 | 55.3 | 87.6 | 54.5 | 44.5 | 37.6
O=C1/C(=C/c2ccc(O)cc2)CCCC1CN1CCCCC1 (stereo unspecified) | 10.8 | 11.9 | 10.6 | 20.4 | 29.6 | 3.46 | 13.6 | 30.4 | 4.02 | 3.36 | 7.05
COC(=O)C(Cc1ccccc1)NC(=O)C(CS)NC(=O)OC(C)(C)C (stereo not drawn) (Boc-Cys-Phe-OMe; configuration not given here) | > 100 | > 100 | > 100 | > 100 | > 100 | > 100 | > 100 | > 100 | > 100 | > 100 | > 100
O=C(CCBr)N1CCN(C(=O)CCBr)CC1 | 225 | 153 | 252 | 165 | 221 | 73.3 | 246 | 212 | 225 | 206 | 169
